Measurements from patent US20250230159A1, “FUSED HETEROCYCLIC COMPOUNDS AS MODULATORS OF RAS SIGNALLING” (Shenzhen Ionova Life Science Co., Ltd., priority 2022, published 2025).
pIC50: −log10 of the molar value. Where two headings read alike, the source gives them in different places.

Legend:
[1] = molecular target: KRAS-G12C/SOS1 interaction (Homo sapiens (Human), UniProt Q07889); test: Protein-Protein Interaction (PPI) assay, SOS1-KRAS binding assay kit (HTRF)
pERK in Hela cells = test: Phospho-ERK (p-ERK) assay in Hela cells; type: cell-based; settings: Homo sapiens, β-actin normalized
Method: This Example illustrates that exemplary compounds of the present invention prevent KRas-mediated GTP nucleotide exchange mediated by SOS1 to inhibit KRas activity, thereby inhibiting the generation of the downstream effector pERK.
Hela cells (23,000/w) were seeded in a black clear flat bottom 96-well cell culture plate (Corning, #3904) and incubated at 37° C. overnight. At day 2, cells were dosed with compounds of Formula (I) with a 10 μM starting concentration and serially diluted 3× for a total of 9 concentrations. The cells were incubated for 1 hour with the compounds solubilized in DMSO at 37° C. Cells were immediately fixed by adding 100 μL of 8% formaldehyde to all wells in a fume hood and the plates were incubated for 1 hr at room temperature. The formaldehyde was discarded from the plates and washed 5 times and each time for 5 min with 200 μL of Triton Washing Solution (0.1% Triton in PBS) each time to permeabilize the cells. Cells were then blocked with 150 μL of Odyssey blocking buffer (LI-COR Biosciences #927-50010) at room temperature on a shaker. The blocking buffer was discarded and 50 μL of primary antibodies pERK (cell signaling Technology #4370; Rabbit, 1:500) and β-actin (AF5001; Mouse, 1:2000) diluted in Odyssey blocking buffer was added. The plates were incubated overnight at 4° C. on a shaker.
On day 3, the primary antibody solution was removed. Each plate was washed 5× times with 200 μL of 1×PBST (PBS+0.1% Tween 20) and incubated with 50 μL of secondary antibodies: Anti-Rabbit (LI-COR Biosciences #926-32211) and Anti-Mouse (LI-COR Biosciences #68070) at 1:1000 dilution in Odyssey blocking buffer at room temperature on a shaker for 1 hour (protected from light). The secondary antibody solution as removed and each plate was washed with PBST 5× times. Any liquid remaining was discarded and the plate was imaged using the Licor Odyssey machine according to the manufacturer's instruction, using a set focus length at 3.5 mm and both 800 nm and 700 nm filters. The 3-actin normalized scan values for each well were divided by the average of vehicle wells to get the % of p-ERK inhibition. The IC50 values were then calculated with the Graph pad Prism software. In general, p-ERK IC50 data are in line with the PPI IC50 data.

Chain of KRAS-G12C/SOS1 interaction (Q07889 whole entry, stated change not applied): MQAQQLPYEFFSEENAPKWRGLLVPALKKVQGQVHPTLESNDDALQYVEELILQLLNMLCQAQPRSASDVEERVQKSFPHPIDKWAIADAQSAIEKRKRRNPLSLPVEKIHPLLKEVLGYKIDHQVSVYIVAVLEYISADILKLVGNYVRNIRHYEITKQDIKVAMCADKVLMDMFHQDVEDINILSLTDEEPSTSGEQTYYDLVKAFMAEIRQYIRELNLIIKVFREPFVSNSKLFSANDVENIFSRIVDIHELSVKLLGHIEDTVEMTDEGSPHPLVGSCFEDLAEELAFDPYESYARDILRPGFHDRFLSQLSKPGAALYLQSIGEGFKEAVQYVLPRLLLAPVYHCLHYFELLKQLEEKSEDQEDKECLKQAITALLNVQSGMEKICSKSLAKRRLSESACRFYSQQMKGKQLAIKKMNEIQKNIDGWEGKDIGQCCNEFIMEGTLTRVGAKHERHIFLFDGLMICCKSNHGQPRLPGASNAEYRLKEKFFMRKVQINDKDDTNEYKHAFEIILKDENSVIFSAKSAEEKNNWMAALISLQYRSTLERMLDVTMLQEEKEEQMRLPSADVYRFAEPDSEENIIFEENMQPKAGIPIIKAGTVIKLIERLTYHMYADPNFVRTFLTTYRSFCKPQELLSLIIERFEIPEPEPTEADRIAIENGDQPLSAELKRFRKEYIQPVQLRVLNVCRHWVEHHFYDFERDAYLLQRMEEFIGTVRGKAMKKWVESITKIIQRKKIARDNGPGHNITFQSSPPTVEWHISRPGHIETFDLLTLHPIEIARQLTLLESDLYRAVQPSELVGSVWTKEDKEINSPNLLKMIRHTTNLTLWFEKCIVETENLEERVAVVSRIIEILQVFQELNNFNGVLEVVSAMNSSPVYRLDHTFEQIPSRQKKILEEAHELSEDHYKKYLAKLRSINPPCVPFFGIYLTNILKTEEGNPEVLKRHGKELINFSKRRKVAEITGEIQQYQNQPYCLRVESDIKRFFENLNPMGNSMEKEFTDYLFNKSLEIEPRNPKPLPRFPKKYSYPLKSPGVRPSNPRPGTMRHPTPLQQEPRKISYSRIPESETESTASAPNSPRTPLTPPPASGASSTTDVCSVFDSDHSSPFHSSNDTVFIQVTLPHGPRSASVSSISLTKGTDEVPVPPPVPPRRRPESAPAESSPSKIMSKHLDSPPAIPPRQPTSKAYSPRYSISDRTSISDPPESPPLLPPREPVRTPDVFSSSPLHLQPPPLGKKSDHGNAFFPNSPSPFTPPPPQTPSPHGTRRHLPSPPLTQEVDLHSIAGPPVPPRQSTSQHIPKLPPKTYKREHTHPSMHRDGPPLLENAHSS

| Structure (SMILES) | pIC50 ([1]; read-out: PPI Assay IC50) | pIC50 (pERK in Hela cells; Table 1, 1 hour with compound) | pIC50 [1] | pIC50 (pERK in Hela cells; Table 2, 1 hour with compound) |
| --- | --- | --- | --- | --- |
| CC(=O)N1CC=C(c2cc3c(N[C@H](C)c4cccc(C(F)F)c4F)nc(C)nc3n3nnnc23)CC1 [Example 105] | > 7.00 | > 7.00 | – | – |
| CC(=O)N1CC=C(c2cc3c(N[C@H](C)c4cccc(C(F)F)c4F)ncnc3n3nnnc23)CC1 [Example 106] | > 7.00 | > 7.00 | – | – |
| CC(=O)N1CCC(O)(c2cc3c(N[C@H](C)c4cccc(C(F)F)c4F)nc(C)nc3n3cnnc23)CC1 [Example 107, (R)-1-(4-(4-((1-(3-(difluoromethyl)-2-fluorophenyl)ethyl)amino)-2-methyl-[1,2,4]triazolo[4′,3′:1,6]pyrido[2,3-d]pyrimidin-6-yl)-4-hydroxypiperidin-1-yl)ethan-1-one] | > 7.00 | > 7.00 | – | – |
| CC(=O)N1CCC(O)(c2cc3c(N[C@H](C)c4cccc(C(F)F)c4F)ncnc3n3cnnc23)CC1 [Example 108] | > 7.00 | > 7.00 | – | – |
| CC(=O)N1CCC(O)(c2cc3c(N[C@H](C)c4cccc(C(F)F)c4F)nc(C)nc3n3cnnc23)C1 (some centres unmarked) [Example 109] | > 7.00 | < 7.00 | – | – |
| CC(=O)N1CCC(O)(c2cc3c(N[C@H](C)c4cccc(C(F)F)c4F)nc(C)nc3n3nnnc23)CC1 [Example 112] | > 7.00 | < 7.00 | – | – |
| CC(=O)N1CCC(O)(c2cc3c(N[C@H](C)c4cccc(C(F)F)c4F)ncnc3n3nnnc23)CC1 [Example 113] | > 7.00 | < 7.00 | – | – |
| CC(=O)N1CCC(F)(c2cc3c(N[C@H](C)c4cccc(C(F)F)c4F)nc(C)nc3n3cnnc23)CC1 [Example 114, (R)-1-(4-(4-((1-(3-(difluoromethyl)-2-fluorophenyl)ethyl)amino)-2-methyl-[1,2,4]triazolo[4′,3′:1,6]pyrido[2,3-d]pyrimidin-6-yl)-4-fluoropiperidin-1-yl)ethan-1-one] | > 7.00 | > 7.00 | – | – |
| CC(=O)N1CCC(F)(c2cc3c(N[C@H](C)c4cccc(C(F)F)c4F)nc(C)nc3n3cnnc23)C1 (some centres unmarked) [Example 115] | > 7.00 | < 7.00 | – | – |
| CC(=O)N1CCC(F)(c2cc3c(N[C@H](C)c4cccc(C(F)F)c4F)nc(C)nc3n3nnnc23)CC1 [Example 116] | > 7.00 | > 7.00 | – | – |
| CC(=O)N1CCC(F)(c2cc3c(N[C@H](C)c4cccc(C(F)F)c4F)ncnc3n3nnnc23)CC1 [Example 117] | > 7.00 | > 7.00 | – | – |
| COC1(c2cc3c(N[C@H](C)c4cccc(C(F)F)c4F)nc(C)nc3n3cnnc23)CCN(C(C)=O)CC1 [Example 118, (R)-1-(4-(4-((1-(3-(difluoromethyl)-2-fluorophenyl)ethyl)amino)-2-methyl-[1,2,4]triazolo[4′,3′:1,6]pyrido[2,3-d]pyrimidin-6-yl)-4-methoxypiperidin-1-yl)ethan-1-one] | > 7.00 | > 7.00 | – | – |
| COC1(c2cc3c(N[C@H](C)c4cccc(C(F)F)c4F)ncnc3n3cnnc23)CCN(C(C)=O)CC1 [Example 119] | > 7.00 | > 7.00 | – | – |
| COC1(c2cc3c(N[C@H](C)c4cccc(C(F)F)c4F)nc(C)nc3n3cnnc23)CCN(C(C)=O)C1 (some centres unmarked) [Example 120] | > 7.00 | > 7.00 | – | – |
| COC1(c2cc3c(N[C@H](C)c4cccc(C(F)F)c4F)ncnc3n3cnnc23)CCS(=O)(=O)CC1 [Example 121] | > 7.00 | > 7.00 | – | – |
| COC1(c2cc3c(N[C@H](C)c4cc(N)cc(C(F)(F)F)c4)ncnc3n3cnnc23)CCN(C(C)=O)CC1 [Example 122] | > 7.00 | > 7.00 | – | – |
| COC1(c2cc3c(N[C@H](C)c4cc(N)cc(C(F)(F)F)c4)ncnc3n3cnnc23)CCOCC1 [Example 123] | > 7.00 | > 7.00 | – | – |

| Structure (SMILES) | pIC50 ([1]; read-out: PPI Assay IC50) | pIC50 (pERK in Hela cells; Table 1, 1 hour with compound) | pIC50 [1] | pIC50 (pERK in Hela cells; Table 2, 1 hour with compound) |
| --- | --- | --- | --- | --- |
| COC1(c2cc3c(N[C@H](C)c4cccc(C(F)F)c4F)nc(C)nc3n3c(C)nnc23)CCN(C(C)=O)CC1 [Example 124] | > 7.00 | > 7.00 | – | – |
| COC1(c2cc3c(N[C@H](C)c4cccc(C(F)F)c4F)ncnc3n3nnnc23)CCN(C(C)=O)CC1 [Example 125] | > 7.00 | > 7.00 | – | – |
| CC(=O)N1CCC(C)(c2cc3c(N[C@H](C)c4cccc(C(F)F)c4F)nc(C)nc3n3cnnc23)CC1 [Example 127, (R)-1-(4-(4-((1-(3-(difluoromethyl)-2-fluorophenyl)ethyl)amino)-2-methyl-[1,2,4]triazolo[4′,3′:1,6]pyrido[2,3-d]pyrimidin-6-yl)-4-methylpiperidin-1-yl)ethan-1-one] | > 7.00 | > 7.00 | – | – |
| C[C@@H](Nc1ncnc2c1cc(C1(C)CCS(=O)(=O)CC1)c1nncn12)c1cccc(C(F)F)c1F [Example 129] | > 7.00 | > 7.00 | – | – |
| C[C@@H](Nc1ncnc2c1cc(C1(C)CCOCC1)c1nncn12)c1cc(N)cc(C(F)(F)F)c1 [Example 130] | > 7.00 | < 7.00 | – | – |
| CC(=O)N1CCC(C)(c2cc3c(N[C@H](C)c4cccc(C(F)F)c4F)nc(C)nc3n3nnnc23)CC1 [Example 131] | > 7.00 | > 7.00 | – | – |
| CC(=O)N1CCC(C)(c2cc3c(N[C@H](C)c4cccc(C(F)F)c4F)ncnc3n3nnnc23)CC1 [Example 132] | > 7.00 | > 7.00 | – | – |
| CC(=O)N1CCC(O)(c2cc3c(N[C@H](C)c4cccc(C(F)F)c4F)ncnc3n3c(C(F)(F)F)nnc23)CC1 [Example 135, (R)-1-(4-(4-((1-(3-(difluoromethyl)-2-fluorophenyl)ethyl)amino)-9-(trifluoromethyl)-[1,2,4]triazolo[4′,3′:1,6]pyrido[2,3-d]pyrimidin-6-yl)-4-hydroxypiperidin-1-yl)ethan-1-one] | > 7.00 | < 7.00 | – | – |
| CC(=O)N1CCC(c2cc3c(N[C@H](C)c4cccc(C(F)F)c4F)ncnc3n3cnnc23)CC1 [Example 136, (R)-1-(4-(4-((1-(3-(difluoromethyl)-2-fluorophenyl)ethyl)amino)-[1,2,4]triazolo[4′,3′:1,6]pyrido[2,3-d]pyrimidin-6-yl)piperidin-1-yl)ethan-1-one] | > 7.00 | < 7.00 | – | – |
| CC(=O)N1CCC(c2cc3c(N[C@H](C)c4cccc(C(F)F)c4F)nc(C)nc3n3cnnc23)C1 (some centres unmarked) [Example 137] | > 7.00 | < 7.00 | – | – |
| CC(=O)N1CCC(c2cc3c(N[C@H](C)c4cccc(C(F)F)c4F)nc(C)nc3n3nnnc23)CC1 [Example 142] | > 7.00 | < 7.00 | – | – |
| CC(=O)N1CCC(c2cc3c(N[C@H](C)c4cccc(C(F)F)c4F)ncnc3n3nnnc23)CC1 [Example 145] | > 7.00 | > 7.00 | – | – |
| C[C@@H](Nc1ncnc2c1cc(C1CCN(S(C)(=O)=O)CC1)c1nnnn12)c1cccc(C(F)F)c1F [Example 146] | > 7.00 | > 7.00 | – | – |
| COCC(=O)N1CCC(c2cc3c(N[C@H](C)c4cc(N)cc(C(F)(F)F)c4)nc(C)nc3n3nnnc23)CC1 [Example 147] | > 7.00 | < 7.00 | – | – |
| COCC(=O)N1CCC(c2cc3c(N[C@H](C)c4cccc(C(F)F)c4F)ncnc3n3nnnc23)CC1 [Example 148] | > 7.00 | < 7.00 | – | – |
| Cc1nc(N[C@H](C)c2cccc(C(F)F)c2F)c2cc(C3=CC[S+]([O-])CC3)c3nncn3c2n1 (stereo partly drawn) [Example 149, 4-(4-(((R)-1-(3-(difluoromethyl)-2-fluorophenyl)ethyl)amino)-2-methyl-[1,2,4]triazolo[4′,3′:1,6]pyrido[2,3-d]pyrimidin-6-yl)-3,6-dihydro-2H-thiopyran 1-oxide] | – | – | < 7.00 | < 7.00 |
| Cc1nc(N[C@H](C)c2cccc(C(F)F)c2F)c2cc(C3CC[S+]([O-])CC3)c3nncn3c2n1 (some centres unmarked) [Example 150] | > 7.00 | < 7.00 | – | – |
